Calls of active or inactive are those of the source. No cut-off for these calls is given here.
What was measured:
[1] = system: Digitaria sanguinalis; test: Herbicidal activity against Digitaria sanguinalis (hairy crabgrass) assessed as growth inhibition at 150 g/ha; type: functional, organism-based
[2] = system: Amaranthus retroflexus; test: Herbicidal activity against Amaranthus retroflexus assessed as growth inhibition at 150 g/ha; type: functional, organism-based
[3] = system: Eclipta prostrata; test: Herbicidal activity against Eclipta prostrata assessed as growth inhibition at 150 g/ha; type: functional; settings: for inhibition of growth at 150 g/ha: read-out: GI
[4] = system: Brassica juncea; test: Herbicidal activity against Brassica juncea assessed as growth inhibition at 150 g/ha; type: functional, organism-based
[5] = system: Poa annua; test: Herbicidal activity against Poa annua assessed as growth inhibition at 150 g/ha; type: functional, organism-based
[6] = system: Echinochloa crus-galli; test: Herbicidal activity against Echinochloa crus-galli (barnyard grass) assessed as growth inhibition at 150 g/ha; type: functional, organism-based

Compound | growth inhibition (GI) [1] | growth inhibition (GI) [2] | growth inhibition (GI) [3] | growth inhibition (GI) [4] | growth inhibition (GI) [5] | growth inhibition (GI) [6] | inhibition of growth at 150 g/ha [3]
COC(=O)N(OC)c1ccccc1Cn1c(C)nn(-c2cc(NS(=O)(=O)c3ccccc3)c(Cl)cc2Cl)c1=O | Active | inactive | inactive | inactive | Active | Active | 
COC(=O)N(OC)c1ccccc1Cn1c(C)nn(-c2cc(NS(C)(=O)=O)c(Cl)cc2Cl)c1=O | inactive | inactive | inactive | inactive | inactive | inactive | 
CO/N=C(/C(=O)OC)c1ccccc1Cn1c(C)nn(-c2cc(NS(=O)(=O)c3ccccc3)c(Cl)cc2F)c1=O | inactive | inactive | inactive | inactive | inactive | inactive | 
COC(=O)N(OC)c1ccccc1Cn1c(C)nn(-c2cc(NS(C)(=O)=O)c(Cl)cc2F)c1=O | inactive | inactive |  | inactive | inactive | inactive | 70%
CO/C=C(/C(=O)OC)c1ccccc1Cn1c(C)nn(-c2cc(NS(=O)(=O)c3ccccc3)c(Cl)cc2F)c1=O | inactive | inactive | inactive | inactive | inactive | inactive | 
COC(=O)N(OC)c1ccccc1Cn1c(C)nn(-c2cc(NS(=O)(=O)c3ccccc3)c(Cl)cc2F)c1=O | inactive | inactive | inactive | inactive | inactive | inactive | 
CO/C=C(/C(=O)OC)c1ccccc1Cn1c(C)nn(-c2cc(NS(C)(=O)=O)c(Cl)cc2Cl)c1=O | inactive | inactive | inactive | inactive | inactive | inactive | 
CCS(=O)(=O)Nc1cc(-n2nc(C)n(Cc3ccccc3N(OC)C(=O)OC)c2=O)c(Cl)cc1Cl | Active | inactive | inactive | inactive | Active | Active | 
CO/N=C(/C(=O)OC)c1ccccc1Cn1c(C)nn(-c2cc(NS(C)(=O)=O)c(Cl)cc2Cl)c1=O | inactive | inactive | inactive | inactive | inactive | inactive | 
CO/N=C(/C(=O)OC)c1ccccc1Cn1c(C)nn(-c2cc(NS(C)(=O)=O)c(Cl)cc2F)c1=O | inactive | inactive | inactive | inactive | inactive | inactive | 
CCS(=O)(=O)Nc1cc(-n2nc(C)n(Cc3ccccc3N(OC)C(=O)OC)c2=O)c(F)cc1Cl | inactive | inactive |  | inactive | inactive | inactive | 70%
CO/N=C(/C(=O)OC)c1ccccc1Cn1c(C)nn(-c2cc(NS(=O)(=O)c3ccccc3)c(Cl)cc2Cl)c1=O | inactive | inactive |  | inactive | inactive | inactive | 70%
CO/C=C(/C(=O)OC)c1ccccc1Cn1c(C)nn(-c2cc(NS(C)(=O)=O)c(Cl)cc2F)c1=O | inactive | inactive | inactive | inactive | inactive | inactive | 
CCS(=O)(=O)Nc1cc(-n2nc(C)n(Cc3ccccc3/C(=C\OC)C(=O)OC)c2=O)c(Cl)cc1Cl | inactive | inactive | inactive | inactive | inactive | inactive | 
CO/C=C(/C(=O)OC)c1ccccc1Cn1c(C)nn(-c2cc(NS(=O)(=O)c3ccccc3)c(Cl)cc2Cl)c1=O | inactive | inactive | inactive | inactive | inactive | inactive | 
CCS(=O)(=O)Nc1cc(-n2nc(C)n(Cc3ccccc3/C(=N\OC)C(=O)OC)c2=O)c(Cl)cc1Cl | inactive | inactive | inactive | inactive | inactive | inactive | 
CCS(=O)(=O)Nc1cc(-n2nc(C)n(Cc3ccccc3/C(=C\OC)C(=O)OC)c2=O)c(F)cc1Cl | inactive | inactive | inactive | inactive | inactive | inactive | 

Reference: ChEMBL document CHEMBL3045146, “Synthesis and biological activity of novel phenyltriazolinone derivatives” (2010)
